Experimental data as given in paper PMC8151276, “An Integrated Approach toward NanoBRET Tracers for Analysis of GPCR Ligand Engagement” (Molecules, 2021).

Assays:
[1] = molecular target: T1, ADRA2C (Homo sapiens, UniProt P18825); test: NanoBRET screen HiBiT-ADRA2C in HEK293; format: binding; conditions: ADRA2C
T1 construct: purchased Promega (in-house HiBiT-GPCR construct library, NanoBRET)
T1 sequence (P18825 1-462): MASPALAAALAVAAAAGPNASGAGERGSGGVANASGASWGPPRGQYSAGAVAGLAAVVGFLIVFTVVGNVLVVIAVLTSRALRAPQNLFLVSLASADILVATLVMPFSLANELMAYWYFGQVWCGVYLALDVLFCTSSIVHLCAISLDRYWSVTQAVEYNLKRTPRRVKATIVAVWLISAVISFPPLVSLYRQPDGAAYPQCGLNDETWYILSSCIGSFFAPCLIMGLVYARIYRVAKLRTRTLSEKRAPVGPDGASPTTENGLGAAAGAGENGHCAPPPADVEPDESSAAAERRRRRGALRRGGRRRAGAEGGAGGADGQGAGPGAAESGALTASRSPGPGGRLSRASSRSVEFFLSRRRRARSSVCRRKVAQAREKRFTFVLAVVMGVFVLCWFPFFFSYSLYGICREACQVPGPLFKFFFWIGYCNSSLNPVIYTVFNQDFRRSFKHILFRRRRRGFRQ
Protocol: (§1) Each tracer candidate was screened across the entire library of HiBiT-GPCR constructs using NanoBRET as the detection modality. As depicted in Figure 4A, the specificity of interactions was evaluated through decrease in BRET due to competitive displacement of a bound tracer by excess parental compound. Each tracer was analyzed for binding to each HiBiT-GPCR fusion in the absence and in the presence of competing parental compound. Briefly, HEK293 cells were transfected with HiBiT-GPCR constructs diluted into promoterless DNA to reduce expression and maximize translocation to the cell surface. Each tracer candidate was then screened at concentrations of 1 μM and 0.1 μM across cells expressing these fusions. Cells were treated for 1.5 h with tracer either alone or in the presence of 20 μM competing parental compound (i.e., control). BRET was measured upon addition of purified LgBiT and subsequent complementation with HiBiT genetically fused to a GPCR. The specificity of interactions was assessed through a decrease in BRET signal due to competitive displacement of the bound tracer. To further gauge the robustness of these interactions, the fold response over the control (i.e., BRETtracer/BRETcontrol) was calculated. We chose a 1.5-fold response, which translates to ≥7-fold signal over noise as the minimal threshold required to score an interaction as positive. […]. Below we highlight the screening results obtained for our exemplary fluorescent tracers based on Clozapine, Amitriptyline and AZD1283.
(§2) HiBiT-GPCR DNA constructs were diluted in 10 mM Tris pH 8 to a final concentration of 0.01 μg/μL, arrayed in 96-well plates and stored at −20 °C. For transfection, HEK293 cells were suspended in Opti-MEM (without phenol red) supplemented with 2% fetal bovine serum (Seradigm) and 100 units/mL penicillin–streptomycin (Gibco) at a final concentration of 220,000 cells/mL and dispensed into white 96-well plates at 90 μL/well. Subsequent transfections and screens were carried using an Agilent Bravo Automated Liquid Handling Platform. First, the 96-well HiBiT DNA arrays were diluted 25-fold in Opti-MEM (without serum or phenol red) to a final concentration of 0.0004 μg/μL and 20 μL of the diluted DNAs were transferred into new 96-well plates. Next, promoterless carrier DNA (1 μg/μL) was diluted 25-fold (0.04 μg/μL) and then dispensed into the diluted arrays at 20 μL/well. Following brief mixing, Viafect transfection reagent (Promega) diluted 16-fold into Opti-MEM was dispensed into the plates at 40 μL/well. After mixing by pipetting, plates were incubated for 10 min on the pipetting station deck. The DNA-transfection reagent complexes were then added to plates containing cells. To facilitate the screen, 10 μL of DNA-transfection reagent complexes were added in duplicates to the top 4 and bottom 4 rows, resulting in two identical 48-well arrays per plate. Plates with transfected cells were incubated for 18–20 h at 37 °C/5% CO2. A screen of each tracer across the entire library using two different concentrations requires duplicate plates of transfected cells. Depending on the number of tracers being screened, transfections can be scaled up using the same ratios. The next day, for each tracer, four 20× screening solutions in tracer dilution buffer (Promega) were prepared: two duplicates at final concentration of 20 μM and two duplicates at a final concentration of 2 μM. A competing unmodified compound was added to one of each duplicate at a final concentration of 400 μM. The four resulting solutions were diluted 4-fold in Opti-MEM without serum or phenol red to generate 5× solutions (5 µM and 0.5 µM tracer +/− 100 μM competing compound). To screen the library, a BioTek MultiFlo FX liquid dispenser was used to dispense 22.5 µL of tracer solution to the top 4 rows and 22.5 µL tracer + competing compound solution to the 4 bottom rows. Plates were briefly mixed on an orbital shaker and incubated for 1.5 h at room temperature. […]

[2] = molecular target: T2, NPY2R (Homo sapiens, UniProt P49146); test: NanoBRET screen HiBiT-NPY2R in HEK293; format: binding; conditions: NPY2R
T2 construct: purchased Promega (in-house HiBiT-GPCR construct library, NanoBRET)
T2 sequence (P49146 1-381): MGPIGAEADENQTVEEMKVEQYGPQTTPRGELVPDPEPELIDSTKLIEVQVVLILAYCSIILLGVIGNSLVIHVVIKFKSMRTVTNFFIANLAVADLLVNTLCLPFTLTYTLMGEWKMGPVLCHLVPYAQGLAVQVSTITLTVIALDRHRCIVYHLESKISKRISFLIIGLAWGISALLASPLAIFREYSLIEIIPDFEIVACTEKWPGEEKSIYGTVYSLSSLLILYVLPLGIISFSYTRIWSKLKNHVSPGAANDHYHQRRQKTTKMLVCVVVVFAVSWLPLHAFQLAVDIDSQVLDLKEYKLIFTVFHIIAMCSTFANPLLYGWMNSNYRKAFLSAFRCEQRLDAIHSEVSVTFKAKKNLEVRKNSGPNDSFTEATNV
Protocol: as §1, §2

SMILES: CN1CCN(C2=Nc3cc(Cl)ccc3Nc3ccc(CNC(=O)CCOCCOCCOCCOCCNC(=O)CCc4ccc5n4[B-](F)(F)[N+]4=C(c6ccc[nH]6)C=CC4=C5)cc32)CC1 [Clozapine-b-2-NB590]
- NanoBRET Fold Response ([1]; 0.1μM tracer): 1.25
- NanoBRET Fold Response ([1]; 1μM tracer): 1.67
- NanoBRET Fold Response ([2]; 0.1μM tracer): 1.00
- NanoBRET Fold Response ([2]; 1μM tracer): 1.02

SMILES: CN1CCN(C2=Nc3cc(Cl)ccc3N(CC(=O)NCCOCCOCCOCCOCCNC(=O)CCc3ccc4n3[B-](F)(F)[N+]3=C(c5ccc[nH]5)C=CC3=C4)c3ccccc32)CC1 [Clozapine-c-2-NB590]
- NanoBRET Fold Response ([1]; 0.1μM tracer): 1.05
- NanoBRET Fold Response ([1]; 1μM tracer): 1.49
- NanoBRET Fold Response ([2]; 0.1μM tracer): 1.01
- NanoBRET Fold Response ([2]; 1μM tracer): 0.99

SMILES: O=C(CCOCCOCCOCCOCCNC(=O)CCc1ccc2n1[B-](F)(F)[N+]1=C(c3ccc[nH]3)C=CC1=C2)NCCCN1CCN(C2=Nc3ccccc3Oc3ccc(Cl)cc32)CC1 [Loxapine-a-2-NB590]
- NanoBRET Fold Response ([1]; tracer 0.1μM): 1.13
- NanoBRET Fold Response ([1]; tracer 1μM): 1.54
- NanoBRET Fold Response ([2]; tracer 0.1μM): 1.02
- NanoBRET Fold Response ([2]; tracer 1μM): 1.17

SMILES: COc1ccccc1N1CCN(CCCCN2C(=O)c3ccc(CNC(=O)CCOCCOCCOCCOCCNC(=O)CCc4ccc5n4[B-](F)(F)[N+]4=C(c6ccc[nH]6)C=CC4=C5)cc3C2=O)CC1 [NAN-190-2-NB590]
- NanoBRET Fold Response ([1]; tracer 0.1μM): 1.22
- NanoBRET Fold Response ([1]; tracer 1μM): 0.89
- NanoBRET Fold Response ([2]; tracer 0.1μM): 1.00
- NanoBRET Fold Response ([2]; tracer 1μM): 0.92

SMILES: COc1ccccc1N1CCN(CCCCN2C(=O)c3ccc(CNC(=O)CCOCCNC(=O)c4ccc(CNC(=O)CCc5ccc6n5[B-](F)(F)[N+]5=C(c7ccc[nH]7)C=CC5=C6)cc4)cc3C2=O)CC1 [NAN-190-3-NB590]
- NanoBRET Fold Response ([1]; tracer 0.1μM): 1.56
- NanoBRET Fold Response ([1]; tracer 1μM): 1.33
- NanoBRET Fold Response ([2]; tracer 0.1μM): 1.05
- NanoBRET Fold Response ([2]; tracer 1μM): 1.07

SMILES: O=C(CCc1ccc2n1[B-](F)(F)[N+]1=C(c3ccc[nH]3)C=CC1=C2)NCc1ccc(C(=O)NCCOCCC(=O)N[C@@H]2CC[C@@]3(O)[C@H]4Cc5ccc(O)c6c5[C@@]3(CCN4CC3CC3)[C@H]2O6)cc1 [Naltrexone-3-NB590]
- NanoBRET Fold Response ([1]; tracer 0.1μM): 0.99
- NanoBRET Fold Response ([1]; tracer 1μM): 1.05
- NanoBRET Fold Response ([2]; tracer 0.1μM): 1.05
- NanoBRET Fold Response ([2]; tracer 1μM): 0.96

SMILES: Cc1cc2c(s1)Nc1ccccc1N=C2N1CCN(CCCNC(=O)CCOCCOCCOCCOCCNC(=O)CCc2ccc3n2[B-](F)(F)[N+]2=C(c4ccc[nH]4)C=CC2=C3)CC1 [Olanzapine-a-2-NB590]
- NanoBRET Fold Response ([1]; tracer 0.1μM): 0.97
- NanoBRET Fold Response ([1]; tracer 1μM): 1.50
- NanoBRET Fold Response ([2]; tracer 0.1μM): 1.00
- NanoBRET Fold Response ([2]; tracer 1μM): 0.99

SMILES: O=C(CCc1ccc2n1[B-](F)(F)[N+]1=C(c3ccc[nH]3)C=CC1=C2)NCc1ccc(C(=O)NCCOCCOCCNCC(O)COc2cccc3ccccc23)cc1 (centres unmarked) [Propranolol-3-NB590]
- NanoBRET Fold Response ([1]; 0.1μM): 0.95
- NanoBRET Fold Response ([1]; 1μM): 1.05
- NanoBRET Fold Response ([2]; 0.1μM): 1.02
- NanoBRET Fold Response ([2]; 1μM): 1.00

SMILES: O=C(CCc1ccc2n1[B-](F)(F)[N+]1=C(c3ccc[nH]3)C=CC1=C2)NCCOCCOCCNC(=O)OCCOCCN1CCN(C2=Nc3ccccc3Sc3ccccc32)CC1 [Quetiapine-a-2-NB590]
- NanoBRET Fold Response ([1]; tracer 1μM): 1.42
- NanoBRET Fold Response ([2]; tracer 0.1μM): 0.99
- NanoBRET Fold Response ([2]; tracer 1μM): 0.85
